Measurements taken from patent publication US20240116928A1 (Gilead Sciences, Inc., priority 2022, published 2024).

How the values were obtained:
CD73 [1] = biological target: T1, CD73 (Homo sapiens, UniProt P21589); test: CD73 Biochemical IC50 Assay; conditions: CD73 enzyme (R&D system) final 0.3 nM, final AMP 15 uM, 60 mins incubation, Rapid fire
T1 sequence (P21589 27-549): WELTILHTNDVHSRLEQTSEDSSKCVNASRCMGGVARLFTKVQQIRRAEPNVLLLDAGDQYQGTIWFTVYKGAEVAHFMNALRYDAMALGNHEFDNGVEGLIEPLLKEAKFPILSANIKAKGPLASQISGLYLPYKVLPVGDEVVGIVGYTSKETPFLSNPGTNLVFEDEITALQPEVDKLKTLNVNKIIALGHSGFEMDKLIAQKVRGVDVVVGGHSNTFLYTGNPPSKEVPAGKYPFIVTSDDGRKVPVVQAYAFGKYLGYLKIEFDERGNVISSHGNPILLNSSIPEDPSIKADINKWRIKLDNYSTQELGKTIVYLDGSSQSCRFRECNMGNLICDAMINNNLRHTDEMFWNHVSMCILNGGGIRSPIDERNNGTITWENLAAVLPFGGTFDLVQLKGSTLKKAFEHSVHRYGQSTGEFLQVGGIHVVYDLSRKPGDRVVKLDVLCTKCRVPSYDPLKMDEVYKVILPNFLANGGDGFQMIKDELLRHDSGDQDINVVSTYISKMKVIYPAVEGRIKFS
Description: CD73 Biochemical IC50 Assay
Compound serial dilutions were pre-spotted into Thermo Nunc assay plate. 50 μL CD73 enzyme buffer (CD73 purchased from R&D system=0.6 nM, 25 mM Tris, pH 7.4, 5 mM MgCl2, 1 mM NaH2PO4) was added into the assay plate and incubated for 15 mins. […] After incubation for 60 mins, the supernatant 20 uL was transferred into 384-well NUNC plate pre-filled with 60 ul Quench buffer (80% organic and 20% water+0.1% FA) with internal standard. The plate was spun down at 4500 rpm for 20 mins, then 20 μl of supernatant was transferred to another Nunc plate prefilled with 80 μl of water. The samples were run using Rapid fire.

CD73 [2] = biological target: T1, CD73; test: MDA-MB-231 Cell Based CD73 Activity Assay (DMEM); parameters: endogenous in cells; host or cells: MDA-MB-231-GFP; conditions: MDA-MB-231-GFP cells, DMEM with 10% human plasma, overnight compound treatment, 200 uM AMP, 100 mins
Description: Cells were plated into assay plate with compounds pre-spotted, for an overnight compound treatment. 50 uL of 400 uM AMP (final concentration will be 200 uM) was added using Bio-tek dispenser. Plates were incubated for 100 mins. 20 uL of supernatant was transferred into 384-well NUNC plate pre-filled with 60 ul Quench buffer (80% organic and 20% water+0.1% FA) with internal standard. The plates were spun down at 4500 rpm for 20 mins, then 20 ul of supernatant was transferred to another Nunc plate prefilled with 80 ul of water. The samples were analyzed using Rapid fire.

## Cc1nc(-c2c[nH]c(=O)[nH]c2=O)cc(N2C[C@H](Oc3cc(C(F)F)c(F)cn3)C(F)(F)C2)n1 [Example 15, (S)-6-(4-((4-(difluoromethyl)-5-fluoropyridin-2-yl)oxy)-3,3-difluoropyrrolidin-1-yl)-2-methyl-[4,5′-bipyrimidine]-2′,4′ (1′H,3′H)-dione]
CD73 [1]
  IC50: 10.2 nM
CD73 [2]
  EC50: > 50 nM

## Cc1nc(-c2c[nH]c(=O)[nH]c2=O)cc(N2C[C@H](Oc3ccc4cnn(CC(F)(F)F)c4c3)C(F)(F)C2)n1 [Example 19, (S)-6-(3,3-difluoro-4-((1-(2,2,2-trifluoroethyl)-1H-indazol-6-yl)oxy)pyrrolidin-1-yl)-2-methyl-[4,5′-bipyrimidine]-2′,4′ (1′H,3′H)-dione]
CD73 [1]
  IC50: 6.26 nM
CD73 [2]
  EC50: 26 nM

## O=c1[nH]cc(-c2cc(N3C[C@H](Oc4cc5c(cn4)cnn5CC(F)(F)F)C(F)(F)C3)nc(C3CC3)n2)c(=O)[nH]1 [Example 3, (S)-2-cyclopropyl-6-(3,3-difluoro-4-((1-(2,2,2-trifluoroethyl)-1H-pyrazolo[4,3-c]pyridin-6-yl)oxy)pyrrolidin-1-yl)-[4,5′-bipyrimidine]-2′,4′ (1′H,3′H)-dione]
CD73 [1]
  IC50: 25.7 nM
CD73 [2]
  EC50: > 50 nM

## Cc1nc(-c2c[nH]c(=O)[nH]c2=O)cc(N2C[C@H](OC(=O)NC3(C(F)(F)F)CC3)C(F)(F)C2)n1 [Example 30, (S)-4,4-difluoro-1-(2-methyl-2′,4′-dioxo-1′,2′,3′,4′-tetrahydro-[4,5′-bipyrimidin]-6-yl)pyrrolidin-3-yl (1-(trifluoromethyl)cyclopropyl)carbamate]
CD73 [1]
  IC50: 13 nM
CD73 [2]
  EC50: 34.8 nM

## CCc1nc(-c2c[nH]c(=O)[nH]c2=O)cc(N2C[C@H](Oc3cc4c(cn3)cnn4CC(F)(F)F)C(F)(F)C2)n1 [Example 1, (S)-6-(3,3-difluoro-4-((1-(2,2,2-trifluoroethyl)-1H-pyrazolo[4,3-c]pyridin-6-yl)oxy)pyrrolidin-1-yl)-2-ethyl-[4,5′-bipyrimidine]-2′,4′ (1′H,3′H)-dione]
CD73 [1]
  IC50: 12.7 nM
CD73 [2]
  EC50: 33.7 nM

## Cc1nc(OCC(F)(F)COC(=O)NC(C)C)cc(-c2c[nH]c(=O)[nH]c2=O)n1 [Example 26]
CD73 [1]
  IC50: 7.06 nM
CD73 [2]
  EC50: > 50 nM

## COc1cc(N2C[C@H](Oc3cc4c(cn3)cnn4CC(F)(F)F)C(F)(F)C2)cc(-c2c[nH]c(=O)[nH]c2=O)n1 [Example 12, (S)-5-(4-(3,3-difluoro-4-((1-(2,2,2-trifluoroethyl)-1H-pyrazolo[4,3-c]pyridin-6-yl)oxy)pyrrolidin-1-yl)-6-methoxypyridin-2-yl)pyrimidine-2,4(1H,3H)-dione]
CD73 [1]
  IC50: 8.95 nM
CD73 [2]
  EC50: 27.1 nM

## Cc1nc(-c2c[nH]c(=O)[nH]c2=O)cc(N2C[C@H](Oc3cc4c(cn3)c(C)nn4CC(F)(F)F)C(F)(F)C2)n1 [Example 28, (S)-6-(3,3-difluoro-4-((3-methyl-1-(2,2,2-trifluoroethyl)-1H-pyrazolo[4,3-c]pyridin-6-yl)oxy)pyrrolidin-1-yl)-2-methyl-[4,5′-bipyrimidine]-2′,4′ (1′H,3′H)-dione]
CD73 [1]
  IC50: 7.16 nM
CD73 [2]
  EC50: 6.38 nM

## Cc1nc(-c2c[nH]c(=O)[nH]c2=O)cc(N2C[C@H](Oc3ccnc(C(F)(F)F)c3)C(F)(F)C2)n1 [Example 18, (S)-6-(3,3-difluoro-4-((2-(trifluoromethyl)pyridin-4-yl)oxy)pyrrolidin-1-yl)-2-methyl-[4,5′-bipyrimidine]-2′,4′ (1′ H,3′ H)-dione]
CD73 [1]
  IC50: 5.7 nM
CD73 [2]
  EC50: 32.9 nM

## Cc1nc(-c2c[nH]c(=O)[nH]c2=O)cc(N2C[C@H](Oc3ccnc(C(F)F)c3)C(F)(F)C2)n1 [Example 21, (S)-6-(4-((2-(difluoromethyl)pyridin-4-yl)oxy)-3,3-difluoropyrrolidin-1-yl)-2-methyl-[4,5′-bipyrimidine]-2′,4′ (1′ H,3′ H)-dione]
CD73 [1]
  IC50: 4.97 nM
CD73 [2]
  EC50: 39.7 nM

## Cc1nc(-c2c[nH]c(=O)[nH]c2=O)cc(N2C[C@H](Oc3ccnc(C4(C(F)(F)F)CC4)c3)C(F)(F)C2)n1 [Example 7, (S)-6-(3,3-difluoro-4-((2-(1-(trifluoromethyl)cyclopropyl)pyridin-4-yl)oxy)pyrrolidin-1-yl)-2-methyl-[4,5′-bipyrimidine]-2′,4′ (1′H,3′H)-dione]
CD73 [1]
  IC50: 4.28 nM
CD73 [2]
  EC50: 1.07 nM

## Cc1nc(-c2c[nH]c(=O)[nH]c2=O)cc(N2C[C@H](Oc3ccc(F)c(OC(F)F)c3)C(F)(F)C2)n1 [Example 17, (S)-6-(4-(3-(difluoromethoxy)-4-fluorophenoxy)-3,3-difluoropyrrolidin-1-yl)-2-methyl-[4,5′-bipyrimidine]-2′,4′ (1′H,3′H)-dione]
CD73 [1]
  IC50: 4.21 nM
CD73 [2]
  EC50: > 50 nM

## Cc1nc(-c2c[nH]c(=O)[nH]c2=O)cc(N2C[C@H](Oc3cc(OC(F)F)ccn3)C(F)(F)C2)n1 [Example 14, (S)-6-(4-((4-(difluoromethoxy)pyridin-2-yl)oxy)-3,3-difluoropyrrolidin-1-yl)-2-methyl-[4,5′-bipyrimidine]-2′,4′ (1′H,3′H)-dione]
CD73 [1]
  IC50: 4.92 nM
CD73 [2]
  EC50: > 50 nM

## Cc1nc(-c2c[nH]c(=O)[nH]c2=O)cc(N2C[C@H](OC(=O)NC(C)C)C(F)(F)C2)n1 [Example 29, (S)-4,4-difluoro-1-(2-methyl-2′,4′-dioxo-1′,2′,3′,4′-tetrahydro-[4,5′-bipyrimidin]-6-yl)pyrrolidin-3-yl isopropylcarbamate]
CD73 [1]
  IC50: 13.1 nM
CD73 [2]
  EC50: > 50 nM

## Cc1nc(-c2c[nH]c(=O)[nH]c2=O)cc(N2C[C@H](Oc3ccc(F)c(C(F)F)c3)C(F)(F)C2)n1 [Example 16, (S)-6-(4-(3-(difluoromethyl)-4-fluorophenoxy)-3,3-difluoropyrrolidin-1-yl)-2-methyl-[4,5′-bipyrimidine]-2′,4′ (1′ H,3′ H)-dione]
CD73 [1]
  IC50: 6.28 nM
CD73 [2]
  EC50: > 50 nM

## Cc1nc(-c2c[nH]c(=O)[nH]c2=O)cc(N2C[C@H](Oc3cc(C4(C(F)(F)F)CC4)ccn3)C(F)(F)C2)n1 [Example 25, (S)-6-(3,3-difluoro-4-((4-(1-(trifluoromethyl)cyclopropyl)pyridin-2-yl)oxy)pyrrolidin-1-yl)-2-methyl-[4,5′-bipyrimidine]-2′,4′ (1′H,3′H)-dione]
CD73 [1]
  IC50: 4 nM
CD73 [2]
  EC50: 5.31 nM

## Cc1nc(-c2c[nH]c(=O)[nH]c2=O)cc(N2C[C@H](Oc3ccncc3)C(F)(F)C2)n1 [Example 20, (S)-6-(3,3-difluoro-4-(pyridin-4-yloxy)pyrrolidin-1-yl)-2-methyl-[4,5′-bipyrimidine]-2′,4′ (1′H,3′H)-dione]
CD73 [1]
  IC50: 8.7 nM
CD73 [2]
  EC50: > 50 nM

## O=c1[nH]cc(-c2cc(N3C[C@H](Oc4cc5c(cn4)cnn5CC(F)(F)F)C(F)(F)C3)nc(C(F)(F)F)n2)c(=O)[nH]1 [Example 6, (S)-6-(3,3-difluoro-4-((1-(2,2,2-trifluoroethyl)-1H-pyrazolo[4,3-c]pyridin-6-yl)oxy)pyrrolidin-1-yl)-2-(trifluoromethyl)-[4,5′-bipyrimidine]-2′,4′ (1′H,3′H)-dione]
CD73 [1]
  IC50: 7.14 nM
CD73 [2]
  EC50: 35.7 nM

## O=c1[nH]cc(-c2cc(N3C[C@H](Oc4cc5c(cn4)cnn5CC(F)(F)F)C(F)(F)C3)cc(C(F)(F)F)n2)c(=O)[nH]1 [Example 11, (S)-5-(4-(3,3-difluoro-4-((1-(2,2,2-trifluoroethyl)-1H-pyrazolo[4,3-c]pyridin-6-yl)oxy)pyrrolidin-1-yl)-6-(trifluoromethyl)pyridin-2-yl)pyrimidine-2,4(1H,3H)-dione]
CD73 [1]
  IC50: 12.8 nM
CD73 [2]
  EC50: 22.5 nM

## Cc1cc(N2C[C@H](Oc3cc4c(cn3)cnn4CC(F)(F)F)C(F)(F)C2)cc(-c2c[nH]c(=O)[nH]c2=O)n1 [Example 10, (S)-5-(4-(3,3-difluoro-4-((1-(2,2,2-trifluoroethyl)-1H-pyrazolo[4,3-c]pyridin-6-yl)oxy)pyrrolidin-1-yl)-6-methylpyridin-2-yl)pyrimidine-2,4(1H,3H)-dione]
CD73 [1]
  IC50: 41 nM
CD73 [2]
  EC50: 49 nM

## Cc1nc(-c2c[nH]c(=O)[nH]c2=O)cc(N2C[C@H](Oc3cc(C(F)(F)F)ccn3)C(F)(F)C2)n1 [Example 13, 5-[6-[(4S)-3,3-difluoro-4-[[4-(trifluoromethyl)-2-pyridyl]oxy]pyrrolidin-1-yl]-2-methyl-pyrimidin-4-yl]-1H-pyrimidine-2,4-dione]
CD73 [1]
  IC50: 31.3 nM
CD73 [2]
  EC50: > 50 nM
